This note sets out measurements from paper PMC4129416, “YLT192, a Novel, Orally Active Bioavailable Inhibitor of VEGFR2 Signaling with Potent Antiangiogenic Activity and Antitumor Efficacy in Preclinical Models” (Scientific Reports, 2014).

The term IC50 denotes the midpoint of a concentration-inhibition curve. The low end stands for greater potency in that assay, the high end for weaker potency in that assay.

One assay concerns A2058. Nature of the assay: Inhibition of tumor cell growth. It counts as cell-based. The following applies: A2058, human melanoma; 48 hour treatment; means ± SD, n=3. On the procedure: (§1) The proliferative inhibitory ability of YLT192 on tumor cells was investigated. […] Inhibition of cell proliferation is a possible approach for cancer treatment. EdU incorporation assay was performed to investigate the anti-proliferative effects of YLT192 against U251 and HCT116 cells.
(§2) treatment with YLT192. Data are means ± SD, n=3.

A further assay concerns A875. Nature of the assay: Inhibition of tumor cell growth. It counts as cell-based. The following applies: A875, human melanoma; 48 hour treatment; means ± SD, n=3. On the procedure:
as §1, §2

The test system of a further assay is U251 tumors. Nature of the assay: Subcutaneous xenograft model. It counts as in vivo. The following applies: 100 mg/kg oral once daily; U251 xenograft in nude mice; vs vehicle. The protocol: (§3) Figure 5 Anti-tumor activities of YLT192 in vivo. (A) U251 and HCT116 tumor-bearing mice were treated orally with YLT192 at 25, 50 and 100 mg/kg or vehicle daily, respectively. […] (B) Body weight changes in YLT192 and vehicle treated mice. […] For A and B, data are means ± SD. (C) and (D), YLT192 inhibited tumor cell proliferation in HCT116 tumor tissues in vivo. Mice bearing HCT116 tumor xenograft were treated with YLT192 at 50 and 100 mg/kg or vehicle and sacrificed at the end of the experiment. The tumor tissues were removed for further immunohistochemistry analysis using anti-Ki67 (C) and anti-p-p44/42 MAPK antibodies (D). (E) YLT192 induced tumor cell apoptosis in HCT116 tumor in vivo. Apoptosis was measured by TUNEL staining (n = 6 mice per group). Scale bars represent 100 μm.
(§4) All animal experiments were approved and conducted by the Institutional Animal Care and Treatment Committee of Sichuan University in China (Permit Number: 20121205). […] Tumor growth and body weight was measured every three days during the treatment. Tumor volumes were calculated using the formula as follow: volume (mm^3) = 0.5 × length (mm) × width (mm)^2. Growth inhibition was calculated from the start of treatment by comparison of the mean change in tumor volume for vehicle and treated group as before.

The next assay concerns HCT116 tumors. Nature of the assay: Subcutaneous xenograft model. It counts as in vivo. As to conditions: 100 mg/kg oral once daily; HCT116 xenograft in nude mice; vs vehicle. On the procedure:
as §3, §4

The subject of assay [1] is HUVEC. Nature of the assay: Capillary-like tube formation assay. It counts as cell-based, human. The following applies: designed concentrations; 6 hours; Matrigel. On the procedure:
To elucidate the possible mechanisms of angiogenesis inhibition, tube formation ability of ECs, which is a critical step in the process of angiogenesis, was assessed in HUVEC in vitro.
The anti-angiogenesis ability of YLT192 in vitro was evaluated using capillary tube formation assay as described previously. Briefly, 96-well plate was pre-incubated with Matrigel at 37°C for 45 minutes. Then HUVECs (2 × 10^4 cells) suspended in EGM2 medium were seeded onto the Matrigel. They were treated with various concentrations of YLT192. After 6 hours incubation at 37°C, tube formation was assessed with an OLYMPUS inverted digital camera in low power fields (50×). Vandetanib served as positive control. The assay was replicated 3 times.

Assay [2] deals with HUVEC. Nature of the assay: Transwell invasion assay. It counts as cell-based, human. The following applies: various concentrations; 24 hours; concentration-dependent. The source says:
Cell migration is essential for ECs in angiogenesis and for cancer cells in tumor growth and metastasis. […] Cell invasion is essential for EC in angiogenesis, so we performed transwell assays to evaluate the ability of HUVEC to pass through the Matrigel and membrane barriers of the transwell in the presence of various concentrations of YLT192 or vehicle.
Figure 2 Effects of YLT192 on HUVECs proliferation, migration, invasion and tube formation. […] Cells were wounded by the pipette and then treated with various concentrations of compounds for 24 hours. Migrated cells were quantified by manual counting (50×). […] The bottom chambers of the transwells were filled with 600 μL EGM2 containing various growth factors while the top chambers were seeded with 4 × 10^4 HUVECs in EBM2 and treated with different concentrations of compounds for 24 hours. Cells invaded through the membrane were stained and quantified (100×). […] HUVECs were seeded on Matrigel layer and treated with different concentrations of compounds. HUVECs tube formation was assessed 6 hours later (50×). One representative experiment of three is shown. […]
HUVECs were allowed to grow into full confluence in 24-well plates and then wounded by scratching with pipette tips and washed with PBS. […] Images were taken using a ZEISS digital microscope and invading cells were counted by manual counting. […]

In assay [3] the test system is VEGFR2 signaling pathway in HUVEC. Nature of the assay: Western blot of VEGF-induced VEGFR2 phosphorylation and downstream signalling in HUVEC. It counts as cell-based, human. As to conditions: concentration-dependent. On the procedure: Figure 2 Effects of YLT192 on HUVECs proliferation, migration, invasion and tube formation. […] Cells were wounded by the pipette and then treated with various concentrations of compounds for 24 hours. Migrated cells were quantified by manual counting (50×). […] The bottom chambers of the transwells were filled with 600 μL EGM2 containing various growth factors while the top chambers were seeded with 4 × 10^4 HUVECs in EBM2 and treated with different concentrations of compounds for 24 hours. Cells invaded through the membrane were stained and quantified (100×). […] HUVECs were seeded on Matrigel layer and treated with different concentrations of compounds. HUVECs tube formation was assessed 6 hours later (50×). One representative experiment of three is shown. For (A), (B) and (C), data represent the mean ± SEM of three different experiments. Each experiment was performed in duplicate.*P < 0.05, **P < 0.01. (D) YLT192 inhibited VEGF-induced phosphorylation of VEGFR2 and its downstream signal regulator p44/42 MAPK, STAT3 and AKT in HUVECs. One representative Western blot of three is presented. Each has the expression of β-actin as internal control. The full size blots were shown in the Supplemental Figure S5 online. (E) Cellular thermal shift assay showing VEGFR2 target engagement by YLT192 in intact HUVECs. One representative Western blot of two is presented. […]
Background: A western blot detects proteins with antibodies after separation by electrophoresis.

With `CNC(=O)c1cc(Oc2ccc(NC(=O)c3cccc(OC)c3)cc2)ccn1` [YLT192], the concentration for half-maximal inhibition (IC50) was 10.7 ± 1.1 µM in the assay on A2058 and 14.1 ± 2.1 µM with A875. For the same compound, the tumor volume inhibition was determined as 60% in the assay with U251 tumors and 61% with HCT116 tumors. For the same compound, in the assay on HUVEC [1], the “tube formation of HUVEC” value was “strongly inhibited”. In the assay on HUVEC [2], the “invasion of HUVECs in transwell assay” value is “significantly inhibited”. The “VEGF-stimulated phosphorylation of VEGFR2 and downstream p44/42 MAPK, AKT, and STAT3” value in assay [3] is “clearly reduced”.
